Like-named read-outs stand apart in the source and are kept apart here.
Key:
human SCD1 = target: T1, human SCD1 (Homo sapiens, UniProt O00767); assay: Growth inhibition of yeast strain expressing human SCD1 as sole desaturase (OLE1 deleted), OD600 readout; format: cell-based
T1 construct: expressed in transfected cells; host or cells: yeast strain with OLE1 deleted, plasmid-borne human SCD1 (selected in SD-Ura)
T1 sequence (O00767 1-359): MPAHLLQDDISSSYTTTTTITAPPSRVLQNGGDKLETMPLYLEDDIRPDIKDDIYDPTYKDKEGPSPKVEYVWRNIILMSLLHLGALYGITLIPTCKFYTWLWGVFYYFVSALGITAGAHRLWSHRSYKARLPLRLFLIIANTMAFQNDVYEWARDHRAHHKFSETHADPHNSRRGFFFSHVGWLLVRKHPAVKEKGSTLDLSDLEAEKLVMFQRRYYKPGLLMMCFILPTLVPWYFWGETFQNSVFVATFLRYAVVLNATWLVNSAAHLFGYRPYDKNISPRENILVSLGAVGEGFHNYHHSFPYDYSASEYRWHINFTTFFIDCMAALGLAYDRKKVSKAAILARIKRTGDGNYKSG

human SCD5 = target: T2, human SCD5 (Homo sapiens, UniProt Q86SK9); assay: Growth inhibition of yeast strain expressing human SCD5 as sole desaturase (OLE1 deleted), OD600 readout; format: cell-based
T2 construct: expressed in transfected cells; host or cells: yeast strain with OLE1 deleted, plasmid-borne human SCD5 (selected in SD-Ura)
T2 sequence (Q86SK9 1-330): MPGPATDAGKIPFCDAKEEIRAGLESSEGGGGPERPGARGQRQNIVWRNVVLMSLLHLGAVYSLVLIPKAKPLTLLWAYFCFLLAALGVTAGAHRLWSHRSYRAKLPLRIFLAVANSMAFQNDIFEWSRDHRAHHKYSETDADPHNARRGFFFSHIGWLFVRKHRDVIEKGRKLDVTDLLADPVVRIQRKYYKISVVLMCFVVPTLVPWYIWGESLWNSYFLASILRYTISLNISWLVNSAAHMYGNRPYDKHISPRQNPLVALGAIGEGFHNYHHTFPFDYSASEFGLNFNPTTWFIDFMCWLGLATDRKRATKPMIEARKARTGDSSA

[1] = yeast strain expressing human SCD1 as sole desaturase, growth (OD600) after 40 h at 30° C., read-out: SCD1 IC50
[2] = yeast strain expressing human SCD5 as sole desaturase, growth (OD600) after 40 h at 30° C., read-out: SCD5 IC50

Row | Compound | IC50 (human SCD1; [1]) [nM] | IC50 (human SCD5; SCD5 IC50) [nM] | IC50 (human SCD1; SCD1 IC50) [nM] | IC50 (human SCD5; [2]) [nM]
1 | COc1ccc(Cc2ccc(NC(=O)c3ccc(=O)n(C)c3)nc2)cn1 [Compound 58, N-(5-((6-methoxypyridin-3-yl)methyl)pyridin-2-yl)-1-methyl-6-oxo-1,6-dihydropyridine-3-carboxamide] | > 45000 | 35600 | – | –
2 | Cn1cc(C(=O)Nc2ccc(Cc3cc(F)cc(F)c3)cn2)ccc1=O [Compound 59, N-(5-(3,5-difluorobenzyl)pyridin-2-yl)-1-methyl-6-oxo-1,6-dihydropyridine-3-carboxamide] | – | 10 | 310 | –
3 | Cn1cc(C(=O)Nc2ccc(Cc3ccc(F)c(Cl)c3)cn2)ccc1=O [Compound 60, N-(5-(3-chloro-4-fluorobenzyl)pyridin-2-yl)-1-methyl-6-oxo-1,6-dihydropyridine-3-carboxamide] | – | 650 | 4380 | –
4 | Cn1cc(C(=O)Nc2ccc(Cc3cccc(C#N)c3)cn2)ccc1=O [Compound 61, N-(5-(3-cyanobenzyl)pyridin-2-yl)-1-methyl-6-oxo-1,6-dihydropyridine-3-carboxamide] | – | 600 | 7520 | –
5 | Cn1cc(C(=O)Nc2ccc(Cc3ccc4c(c3)COC4)cn2)ccc1=O [Compound 62, N-(5-((1,3-dihydroisobenzofuran-5-yl)methyl)pyridin-2-yl)-1-methyl-6-oxo-1,6-dihydropyridine-3-carboxamide] | – | 2060 | 2340 | –
6 | Cn1cc(C(=O)Nc2ccc(Cc3ccc(C(F)(F)F)cc3)cn2)ccc1=O [Compound 63, 1-methyl-6-oxo-N-(5-(4-(trifluoromethyl)benzyl)pyridin-2-yl)-1,6-dihydropyridine-3-carboxamide] | – | 320 | 380 | –
7 | Cn1cc(C(=O)Nc2ccc(Cc3ccc(Cl)cc3)cn2)ccc1=O [Compound 64, N-(5-(4-chlorobenzyl)pyridin-2-yl)-1-methyl-6-oxo-1,6-dihydropyridine-3-carboxamide] | – | 60 | 560 | –
8 | Cn1cc(C(=O)Nc2ccc(CC3CCCCC3)cn2)ccc1=O [Compound 65, N-(5-(cyclohexylmethyl)pyridin-2-yl)-1-methyl-6-oxo-1,6-dihydropyridine-3-carboxamide] | – | 140 | 1210 | –
9 | Cn1cc(C(=O)Nc2ccc(Cc3ccc(F)c(F)c3)cn2)ccc1=O [Compound 66, N-(5-(3,4-difluorobenzyl)pyridin-2-yl)-1-methyl-6-oxo-1,6-dihydropyridine-3-carboxamide] | – | 10 | 1440 | –
10 | CCn1nc(C(=O)Nc2ccc(Cc3cccc(Cl)c3)cn2)ccc1=O [Compound 67, N-(5-(3-chlorobenzyl)pyridin-2-yl)-1-ethyl-6-oxo-1,6-dihydropyridazine-3-carboxamide] | 440 | – | – | 120
11 | CCn1nc(C(=O)Nc2ccc(Cc3cccc(F)c3)cn2)ccc1=O [Compound 68, 1-ethyl-N-(5-(3-fluorobenzyl)pyridin-2-yl)-6-oxo-1,6-dihydropyridazine-3-carboxamide] | 1650 | – | – | 260
12 | CCn1nc(C(=O)Nc2ccc(Cc3cc(F)cc(C#N)c3)cn2)ccc1=O [Compound 69, N-(5-(3-cyano-5-fluorobenzyl)pyridin-2-yl)-1-ethyl-6-oxo-1,6-dihydropyridazine-3-carboxamide] | > 45000 | – | – | 270
13 | CCn1nc(C(=O)Nc2ccc(Cc3ccc(Cl)c(Cl)c3)cn2)ccc1=O [Compound 70, N-(5-(3,4-dichlorobenzyl)pyridin-2-yl)-1-ethyl-6-oxo-1,6-dihydropyridazine-3-carboxamide] | 2900 | – | – | 490
14 | CCCn1nc(C(=O)Nc2ccc(Cc3cccc(F)c3)cn2)ccc1=O [Compound 71, N-(5-(3-fluorobenzyl)pyridin-2-yl)-6-oxo-1-propyl-1,6-dihydropyridazine-3-carboxamide] | > 45000 | – | – | 3910
15 | CC(C)n1nc(C(=O)Nc2ccc(Cc3cccc(F)c3)cn2)ccc1=O [Compound 72, N-(5-(3-fluorobenzyl)pyridin-2-yl)-1-isopropyl-6-oxo-1,6-dihydropyridazine-3-carboxamide] | – | 390 | 4700 | –
16 | CC(C)n1nc(C(=O)Nc2ccc(Cc3cccc(Cl)c3)cn2)ccc1=O [Compound 73, N-(5-(3-chlorobenzyl)pyridin-2-yl)-1-isopropyl-6-oxo-1,6-dihydropyridazine-3-carboxamide] | 8080 | – | – | 170

Row | Compound | IC50 (human SCD1; [1]) [nM] | IC50 (human SCD5; SCD5 IC50) [nM] | IC50 (human SCD1; SCD1 IC50) [nM] | IC50 (human SCD5; [2]) [nM]
17 | O=C(Nc1ccc(Cc2cc(F)cc(Cl)c2)cn1)c1ccc(=O)n(C2CC2)n1 [Compound 74, N-(5-(3-chloro-5-fluorobenzyl)pyridin-2-yl)-1-cyclopropyl-6-oxo-1,6-dihydropyridazine-3-carboxamide] | 250 | – | – | 10
18 | O=C(Nc1ccc(Cc2cccc(F)c2)cn1)c1ccc(=O)n(C2CC2)n1 [Compound 75, 1-cyclopropyl-N-(5-(3-fluorobenzyl)pyridin-2-yl)-6-oxo-1,6-dihydropyridazine-3-carboxamide] | 1490 | – | – | 10
19 | O=C(Nc1ccc(Cc2ccc(F)c(Cl)c2)cn1)c1ccc(=O)n(C2CC2)n1 [Compound 76, N-(5-(3-chloro-4-fluorobenzyl)pyridin-2-yl)-1-cyclopropyl-6-oxo-1,6-dihydropyridazine-3-carboxamide] | 10 | – | – | 10
20 | O=C(Nc1ccc(Cc2cccc(F)c2)cn1)c1ccc(=O)n(CC2CC2)n1 [Compound 77, 1-(cyclopropylmethyl)-N-(5-(3-fluorobenzyl)pyridin-2-yl)-6-oxo-1,6-dihydropyridazine-3-carboxamide] | > 45000 | – | – | 6730
21 | CCn1cc(C(=O)Nc2ccc(Cc3cc(F)cc(OC)c3)cn2)ccc1=O [Compound 78, 1-ethyl-N-(5-(3-fluoro-5-methoxybenzyl)pyridin-2-yl)-6-oxo-1,6-dihydropyridine-3-carboxamide] | > 45000 | – | – | 640
22 | CCn1cc(NC(=O)c2ccc(Cc3cc(F)cc(Cl)c3)cn2)ccc1=O [Compound 79, 5-(3-Chloro-5-fluorobenzyl)-N-(1-ethyl-6-oxo-1,6-dihydropyridin-3-yl)picolinamide] | 5190 | – | – | 10
23 | CCn1cc(C(=O)Nc2ccc(Cc3ccc(F)cc3)cn2)ccc1=O [Compound 81, 1-ethyl-N-(5-(4-fluorobenzyl)pyridin-2-yl)-6-oxo-1,6-dihydropyridine-3-carboxamide] | > 45000 | – | – | 2420
24 | CCn1cc(C(=O)Nc2ccc(Cc3ccc(F)c(Cl)c3)cn2)ccc1=O [Compound 82, N-(5-(3-chloro-4-fluorobenzyl)pyridin-2-yl)-1-ethyl-6-oxo-1,6-dihydropyridine-3-carboxamide] | > 45000 | – | – | 30
25 | CC(C)n1cc(C(=O)Nc2ccc(Cc3cccc(Cl)c3)cn2)ccc1=O [Compound 83, N-(5-(3-chlorobenzyl)pyridin-2-yl)-1-isopropyl-6-oxo-1,6-dihydropyridine-3-carboxamide] | > 45000 | 420 | – | –
26 | CCn1cc(C(=O)Nc2ccc(Cc3cccc(Cl)c3)cn2)ccc1=O [Compound 84, N-(5-(3-chlorobenzyl)pyridin-2-yl)-1-ethyl-6-oxo-1,6-dihydropyridine-3-carboxamide] | 6660 | – | – | 370
27 | CN1N=C(NC(=O)c2ccc(Cc3cccc(Cl)c3)cn2)CCC1=O [Compound 86, 5-(3-Chlorobenzyl)-N-(1-methyl-6-oxo-1,4,5,6-tetrahydropyridazin-3-yl)picolinamide] | 9690 | – | – | 70
28 | CN1N=C(NC(=O)c2ccc(Cc3ccc(F)c(F)c3)cn2)CCC1=O [Compound 87, 5-(3,4-Difluorobenzyl)-N-(1-methyl-6-oxo-1,4,5,6-tetrahydropyridazin-3-yl)picolinamide] | > 45000 | – | – | 280
29 | Cn1nc(NC(=O)c2ccc(Cc3cccc(F)c3)cn2)ccc1=O [Compound 88, 5-(3-Fluorobenzyl)-N-(1-methyl-6-oxo-1,6-dihydropyridazin-3-yl)picolinamide] | 650 | – | – | 20
30 | Cn1nc(NC(=O)c2ccc(Cc3cccc(Cl)c3)cn2)ccc1=O [Compound 89, 5-(3-Chlorobenzyl)-N-(1-methyl-6-oxo-1,6-dihydropyridazin-3-yl)picolinamide] | 110 | – | – | 10
31 | CN1N=C(NC(=O)c2ccc(Cc3cccc(F)c3)cn2)CCC1=O [Compound 90, 5-(3-Fluorobenzyl)-N-(1-methyl-6-oxo-1,4,5,6-tetrahydropyridazin-3-yl)picolinamide] | 18000 | – | – | 620
32 | Cn1ccc(C(=O)Nc2ccc(Cc3cccc(Cl)c3)cn2)n1 [Compound 91, N-(5-(3-chlorobenzyl)pyridin-2-yl)-1-methyl-1H-pyrazole-3-carboxamide] | 10 | – | – | 10
